In PubChem BioAssay (NCI):
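A five-concentration, 48-hour dose response in 96-well plates underlies each endpoint, interpolated linearly between surrounding concentrations. Abbreviation: GI50, concentration required for 50% inhibition of growth. TGI is the concentration that stops growth completely.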

Experiments:
Assay in all cases: NCI-60 cell line screen, 48 h
[1] = tested on: RXF 393 renal
[2] = tested on: HL-60(TB) leukemia
[3] = tested on: HS 578T breast
[4] = tested on: HCT-116 colon
[5] = tested on: LOX IMVI melanoma
[6] = tested on: MOLT-4 leukemia
[7] = tested on: NCI-H460 lung
[8] = tested on: HOP-92 NSCLC
[9] = tested on: NCI-H226 lung
[10] = tested on: MALME-3M melanoma
[11] = tested on: OVCAR-3 ovarian
[12] = tested on: MDA-MB-231 breast
[13] = tested on: SF-268 CNS
[14] = tested on: HCT-15 colon
[15] = tested on: SK-MEL-5 melanoma
[16] = tested on: T-47D breast
[17] = tested on: KM12 colon
[18] = tested on: SK-MEL-28 melanoma
[19] = tested on: A498 renal
[20] = tested on: UACC-257 melanoma
[21] = tested on: UO-31 renal
[22] = tested on: SF-539 CNS
[23] = tested on: MDA-MB-468 breast
[24] = tested on: HT29 colon
[25] = tested on: IGROV1 ovarian
[26] = tested on: NCI/ADR-RES ovarian
[27] = tested on: SK-MEL-2 melanoma
[28] = tested on: HOP-62 NSCLC
[29] = tested on: U251 CNS
[30] = tested on: OVCAR-5 ovarian
[31] = tested on: HCC-2998 colon
[32] = tested on: SF-295 CNS
[33] = tested on: ACHN renal
[34] = tested on: BT-549 breast
[35] = tested on: M14 melanoma
[36] = tested on: PC-3 prostate
[37] = tested on: NCI-H522 lung
[38] = tested on: CCRF-CEM leukemia
[39] = tested on: EKVX NSCLC
[40] = tested on: SNB-19 CNS
[41] = tested on: DU-145 prostate
[42] = tested on: OVCAR-4 ovarian
[43] = tested on: MCF7 breast
[44] = tested on: MDA-MB-435
[45] = tested on: UACC-62 melanoma
[46] = tested on: K-562 leukemia
[47] = tested on: A549 NSCLC
[48] = tested on: SW-620 colon
[49] = tested on: SNB-75 CNS
[50] = tested on: NCI-H23 lung
[51] = tested on: SK-OV-3 ovarian
[52] = tested on: OVCAR-8 ovarian
[53] = tested on: 786-0 renal
[54] = tested on: SR leukemia
[55] = tested on: RPMI-8226 leukemia
[56] = tested on: TK-10 renal
[57] = tested on: COLO 205 colon
[58] = tested on: CAKI-1 renal
[59] = tested on: SN12C renal

`NS(=O)(=O)c1cccc(Nc2nc(SCC(=O)c3ccc(F)cc3)nc3ccccc23)c1` showed a GI50 [1] of 16.5 µM, a TGI [1] greater than 57.7 µM and a GI50 [2] of 15 µM. For the same molecule, the TGI [2] was 48.9 µM, the GI50 [3] was 12.9 µM and the TGI [3] was greater than 57.7 µM. It also gave a GI50 [4] of 15.3 µM, a TGI [4] greater than 57.7 µM and a GI50 [5] of 14.3 µM. It also gave a TGI [5] greater than 57.7 µM, a GI50 [6] of 7.43 µM and a TGI [6] of 41.3 µM. The GI50 [7] was 15.1 µM, the TGI [7] was greater than 57.7 µM and the GI50 [8] was 16.4 µM. It also gave a TGI [8] greater than 57.7 µM, a GI50 [9] of 12.1 µM and a TGI [9] greater than 57.7 µM. The GI50 [10] was 27.1 µM, the TGI [10] was greater than 57.7 µM and the GI50 [11] was 12.9 µM. For the same molecule, the TGI [11] was greater than 57.7 µM, the GI50 [12] was 15.9 µM and the TGI [12] was greater than 57.7 µM. It also gave a GI50 [13] of 21 µM, a TGI [13] greater than 57.7 µM and a GI50 [14] of 11.6 µM. The TGI [14] was greater than 57.7 µM, the GI50 [15] was 12.9 µM and the TGI [15] was 54.6 µM. For the same molecule, the GI50 [16] was 3.18 µM, the TGI [16] was greater than 57.7 µM and the GI50 [17] was 7.42 µM. For the same molecule, the TGI [17] was greater than 57.7 µM, the GI50 [18] was 20.4 µM and the TGI [18] was greater than 57.7 µM. The GI50 [19] was greater than 57.7 µM, the TGI [19] was greater than 57.7 µM and the GI50 [20] was 23.4 µM. It also gave a TGI [20] greater than 57.7 µM, a GI50 [21] of 15.5 µM and a TGI [21] greater than 57.7 µM. It also gave a GI50 [22] of 20 µM, a TGI [22] greater than 57.7 µM and a GI50 [23] of 6.23 µM. It also gave a TGI [23] of 42.8 µM, a GI50 [24] of 20 µM and a TGI [24] greater than 57.7 µM. It also gave a GI50 [25] of 9.82 µM, a TGI [25] greater than 57.7 µM and a GI50 [26] of 37.3 µM. The TGI [26] was greater than 57.7 µM, the GI50 [27] was 13.5 µM and the TGI [27] was greater than 57.7 µM. It also gave a GI50 [28] of 22.2 µM, a TGI [28] greater than 57.7 µM and a GI50 [29] of 18.6 µM. For the same molecule, the TGI [29] was greater than 57.7 µM, the GI50 [30] was 24.5 µM and the TGI [30] was greater than 57.7 µM. It also gave a GI50 [31] of 15.7 µM, a TGI [31] greater than 57.7 µM and a GI50 [32] of 14.6 µM. For the same molecule, the TGI [32] was greater than 57.7 µM, the GI50 [33] was 24.7 µM and the TGI [33] was greater than 57.7 µM. It also gave a GI50 [34] of 31.3 µM, a TGI [34] greater than 57.7 µM and a GI50 [35] of 27.2 µM. For the same molecule, the TGI [35] was greater than 57.7 µM, the GI50 [36] was 16.8 µM and the TGI [36] was greater than 57.7 µM. For the same molecule, the GI50 [37] was 11.7 µM, the TGI [37] was 54.3 µM and the GI50 [38] was 7.76 µM. It also gave a TGI [38] greater than 57.7 µM, a GI50 [39] of 18.4 µM and a TGI [39] greater than 57.7 µM. For the same molecule, the GI50 [40] was 22.3 µM, the TGI [40] was greater than 57.7 µM and the GI50 [41] was 19.9 µM. For the same molecule, the TGI [41] was greater than 57.7 µM, the GI50 [42] was 9.34 µM and the TGI [42] was greater than 57.7 µM. For the same molecule, the GI50 [43] was 3.81 µM, the TGI [43] was greater than 57.7 µM and the GI50 [44] was 14.2 µM. The TGI [44] was greater than 57.7 µM, the GI50 [45] was 13.7 µM and the TGI [45] was greater than 57.7 µM. The GI50 [46] was 13 µM, the TGI [46] was greater than 57.7 µM and the GI50 [47] was 26.8 µM. It also gave a TGI [47] greater than 57.7 µM, a GI50 [48] of 18.1 µM and a TGI [48] greater than 57.7 µM. The GI50 [49] was 3.64 µM, the TGI [49] was greater than 57.7 µM and the GI50 [50] was 16.5 µM. The TGI [50] was greater than 57.7 µM, the GI50 [51] was 30.4 µM and the TGI [51] was greater than 57.7 µM. It also gave a GI50 [52] of 19.6 µM, a TGI [52] greater than 57.7 µM and a GI50 [53] of 39.1 µM. The TGI [53] was greater than 57.7 µM, the GI50 [54] was 15.9 µM and the TGI [54] was greater than 57.7 µM. It also gave a GI50 [55] of 12.7 µM, a TGI [55] greater than 57.7 µM and a GI50 [56] greater than 57.7 µM. It also gave a TGI [56] greater than 57.7 µM, a GI50 [57] of 26.8 µM and a TGI [57] greater than 57.7 µM. The GI50 [58] was 13.1 µM, the TGI [58] was greater than 57.7 µM and the GI50 [59] was 17.6 µM. It also gave a TGI [59] greater than 57.7 µM.
